Assay results from US20100120700A1, “METHODS AND COMPOSITIONS FOR TREATING CERVICAL CANCER” (priority 2000, published 2010).
Values joined by “and” are separate entries in the source; they are usually repeats but may differ in a detail not shown here. Equal entries are not always repeated.

Key:
Assay in all cases: G assay PDZ-PL binding
MINT1 domain 1, 2 = molecular target: T1, MINT1 domain 1, 2 (Homo sapiens, UniProt Q02410); conditions: peptide 10 uM, protein 5
T1 construct: When more than one PDZ domain was cloned, the DNA portion cloned represents the PDZ domains and the cDNA portion located between individual domains; made in house; host or cells: E. coli (DH5alpha, BL21 or JM109), vector pGEX-3X
T1 sequence (Q02410 651-828 limits assumed): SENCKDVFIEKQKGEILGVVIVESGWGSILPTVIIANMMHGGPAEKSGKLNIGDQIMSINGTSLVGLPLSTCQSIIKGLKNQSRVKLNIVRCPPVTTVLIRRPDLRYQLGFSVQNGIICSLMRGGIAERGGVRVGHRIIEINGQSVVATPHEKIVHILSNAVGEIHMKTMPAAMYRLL
Method: (§1) (1) A PDZ-domain polypeptide is bound to a surface, e.g. a protein binding surface. In a preferred embodiment, a GST/PDZ fusion protein containing one or more PDZ domains is bound to a polystyrene 96-well plate. […] In one embodiment, the GST/PDZ fusion protein is bound via an anti-GST antibody that is coated onto the 96-well plate. Adequate binding to the plate can be achieved when: • a. 100 uL per well of 5 ug/mL goat anti-GST polyclonal antibody (Pierce) in PBS is added to a polystyrene 96-well plate (e.g., Num Polysorb) at 4° C. for 12 hours. • b. The plate is blocked by addition of 200 uL per well of PBS/BSA for 2 hours at 4° C. • c. The plate is washed 3 times with PBS. • d. 50 uL per well of 5 ug/mL GST/PDZ fusion protein) or, as a negative control, GST polypeptide alone (i.e. not a fusion protein) in PBS/BSA is added to the plate for 2 hours at 4° C. • e. The plate is again washed 3 times with PBS. […]
(§2) (3) The binding of the biotinylated peptide to the GST/PDZ fusion protein surface can be detected using a variety of methods and detectors known to one of skill in the art. In one embodiment, 100 uL per well of 0.5 ug/mL streptavidin-horse radish peroxidase (HRP) conjugate dissolved in BSA/PBS is added and allowed to react for 20 minutes at 4° C. The plate is then washed 5 times with 50 mM Tris pH 8.0 containing 0.2% Tween 20, and developed by addition of 100 uL per well of HRP-substrate solution (TMB, Dako) for 20 minutes at room temperature (RT). The reaction of the HRP and its substrate is terminated by addition of 100 uL per well of 1M sulfuric acid, and the absorbance of each well of the plate is read at 450 nm.
(§3) (4) Specific binding of a PL peptide and a PDZ domain polypeptide is determined by comparing the signal from the well(s) in which the PL peptide and PDZ domain polypeptide are combined, with the background signal(s). The background signal is the signal found in the negative control(s). Typically a specific or selective reaction will be at least twice background signal, more typically more than 5 times background, and most typically 10 or more times the background signal. In addition, a statistically significant reaction will involve multiple measurements of the reaction with the signal and the background differing by at least two standard errors, more typically four standard errors, and most typically six or more standard errors. Correspondingly, a statistical test (e.g. a T-test) comparing repeated measurements of the signal with-repeated measurements of the background will result in a p-value<0.05, more typically a p-value<0.01, and most typically a p-value<0.001 or less. As noted, in an embodiment of the “G” assay, the signal from binding of a given PL peptide to immobilized (surface bound) GST polypeptide alone is one suitable negative control (sometimes referred to as “B 1”). Because all measurement are done in multiples (i.e. at least duplicate) the arithmetic mean (or, equivalently, average.) of several measurements is used in determining the binding, and the standard error of the mean is used in determining the probable error in the measurement of the binding. The standard error of the mean of N measurements equals the square root of the following: the sum of the squares of the difference between each measurement and the mean, divided by the product of (N) and (N−1). Thus, in one embodiment, specific binding of the PDZ protein to the platebound peptide is determined by comparing the mean signal (“mean S”) and standard error of the signal (“SE”) for a particular PL-PDZ combination with the mean B1.
(§4) For convenience, the assay conditions described in this section are referred to as the “G’ assay” and the “G” assay,” with the specific conditions described in the preceding section on G assays being referred to as the “G° assay.” The “G′ assay” is identical to the “G° assay” except at step (2) the peptide concentration is 10 uM instead of 20 uM. […]

FLJ12615 domain 1 = molecular target: T2, FLJ12615 domain 1 (Homo sapiens, UniProt Q8N3R9); conditions: peptide 10 uM, protein 5
T2 construct: made in house; host or cells: E. coli (DH5alpha, BL21 or JM109)
T2 sequence (Q8N3R9 247-343): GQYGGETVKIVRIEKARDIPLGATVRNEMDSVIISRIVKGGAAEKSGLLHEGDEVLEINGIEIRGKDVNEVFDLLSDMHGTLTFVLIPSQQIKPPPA
Method: as §1, §2, §3, §4

SITAC-18 domain 1 = molecular target: T3, SITAC-18 domain 1 (Homo sapiens, UniProt Q9H190); conditions: peptide 10 uM, protein 5
T3 construct: made in house; host or cells: E. coli (DH5alpha or BL-21)
T3 sequence (Q9H190 104-195): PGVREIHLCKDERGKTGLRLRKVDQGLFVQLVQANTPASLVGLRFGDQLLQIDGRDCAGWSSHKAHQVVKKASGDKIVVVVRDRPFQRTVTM
Method: as §1, §2, §3, §4

MUPP1 domain 7 = molecular target: T4, MUPP1 domain 7 (Homo sapiens, UniProt O75970); conditions: peptide 10 uM, protein 5
T4 construct: made in house; host or cells: E. coli (DH5alpha, BL21 or JM109)
T4 sequence (O75970 with tags, fused parts or gaps): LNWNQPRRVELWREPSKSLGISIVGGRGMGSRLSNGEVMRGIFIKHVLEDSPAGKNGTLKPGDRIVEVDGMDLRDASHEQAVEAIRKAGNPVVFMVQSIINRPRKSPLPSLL
Method: as §1, §2, §3, §4

NeDLG domain 2 = molecular target: T5, NeDLG domain 2 (Homo sapiens, UniProt Q92796); conditions: vs GST only well, peptide 10 uM, protein 5
T5 construct: made in house; host or cells: E. coli (DH5alpha, BL21 or JM109)
T5 sequence (Q92796 with tags, fused parts or gaps): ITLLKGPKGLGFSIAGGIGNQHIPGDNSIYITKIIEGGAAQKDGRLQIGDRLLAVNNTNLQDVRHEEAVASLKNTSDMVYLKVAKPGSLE
Method: as §1, §2, §3, §4

RGS12 domain 1 = molecular target: T6, RGS12 domain 1 (Homo sapiens, UniProt O14924); conditions: peptide 10 uM, protein 5
T6 construct: made in house; host or cells: E. coli (DH5alpha, BL21 or JM109), vector pGEX-3X
T6 sequence (O14924 with tags, fused parts or gaps): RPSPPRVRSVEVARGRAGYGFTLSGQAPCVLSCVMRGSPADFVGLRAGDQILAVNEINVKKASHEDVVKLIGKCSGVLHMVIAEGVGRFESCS
Method: as §1, §2, §3, §4

MAGI 1 domain 4 = molecular target: T7, MAGI 1 domain 4 (Homo sapiens, UniProt Q96QZ7); conditions: peptide 10 uM, protein 5
T7 construct: made in house; host or cells: E. coli (DH5alpha, BL21 or JM109)
T7 sequence (Q96QZ7 with tags, fused parts or gaps): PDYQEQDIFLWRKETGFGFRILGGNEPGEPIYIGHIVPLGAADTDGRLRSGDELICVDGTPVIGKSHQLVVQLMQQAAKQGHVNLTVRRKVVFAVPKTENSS
Method: as §1, §2, §3, §4

INADL domain 6 = molecular target: T8, INADL domain 6 (Homo sapiens, UniProt Q8NI35, G1085V); conditions: peptide 10 uM, protein 5
T8 construct: made in house; host or cells: E. coli (DH5alpha, BL21 or JM109)
T8 sequence (Q8NI35 with tags, fused parts or gaps G1085V): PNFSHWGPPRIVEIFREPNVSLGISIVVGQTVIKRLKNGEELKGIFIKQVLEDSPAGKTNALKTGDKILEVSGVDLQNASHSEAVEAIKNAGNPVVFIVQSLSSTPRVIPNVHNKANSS
Method: as §1, §2, §3, §4

KIAA0561 domain 1 = molecular target: T9, KIAA0561 domain 1 (Homo sapiens, UniProt O60307); conditions: peptide 10 uM, protein 5
T9 construct: made in house; host or cells: E. coli (DH5alpha, BL21 or JM109)
T9 sequence (O60307 with tags, fused parts or gaps): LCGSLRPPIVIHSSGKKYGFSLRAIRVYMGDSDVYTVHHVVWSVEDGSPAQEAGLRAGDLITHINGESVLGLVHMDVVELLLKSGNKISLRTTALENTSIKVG
Method: as §1, §2, §3, §4

APXL1 domain 1 = molecular target: T10, APXL1 domain 1 (Homo sapiens, UniProt Q13796); conditions: peptide 10 uM, protein 5
T10 construct: made in house; host or cells: E. coli (DH5alpha, BL21 or JM109), vector pGEX-3X
T10 sequence (Q13796 with tags, fused parts or gaps): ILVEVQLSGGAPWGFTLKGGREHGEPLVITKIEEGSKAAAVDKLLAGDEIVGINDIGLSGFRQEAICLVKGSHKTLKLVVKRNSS
Method: as §1, §2, §3, §4

MAGI 1 domain 2 = molecular target: T11, MAGI 1 domain 2 (Homo sapiens, UniProt Q96QZ7)
T11 construct: made in house; host or cells: E. coli (DH5alpha, BL21 or JM109)
T11 sequence (Q96QZ7 463-566): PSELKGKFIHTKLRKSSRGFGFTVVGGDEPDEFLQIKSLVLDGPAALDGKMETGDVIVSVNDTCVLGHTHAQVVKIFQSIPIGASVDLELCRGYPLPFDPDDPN
Method: as §1, §2, §3, §4

PDZK1 domain 2, 3, 4 = molecular target: T12, PDZK1 domain 2, 3, 4 (Homo sapiens, UniProt Q5T2W1); conditions: peptide 10 uM, protein 5
T12 construct: When more than one PDZ domain was cloned, the DNA portion cloned represents the PDZ domains and the cDNA portion located between individual domains; made in house; host or cells: E. coli (DH5alpha, BL21 or JM109)
Method: as §1, §2, §3, §4

Substance: 20 mer peptide corresponding to the C-terminus of HPV16 E6 (PDZ ligand), biotinylated in binding assays; ends SSRTRRETQL (SEQ ID NO: 13) [HPV E6 #16]
- Ave OD (MINT1 domain 1, 2; A450 nm): 0.3655 and 0.6075
- OD S/N (MINT1 domain 1, 2; vs GST only well): 1.42 and 2.11
- Ave OD (FLJ12615 domain 1; A450 nm): 0.4605
- OD S/N (FLJ12615 domain 1; vs GST only well): 2.24
- Ave OD (SITAC-18 domain 1; A450 nm): 0.3975
- OD S/N (SITAC-18 domain 1; vs GST only well): 1.63
- Ave OD (MUPP1 domain 7; A450 nm): 0.498
- OD S/N (MUPP1 domain 7; vs GST only well): 1.61
- OD S/N (NeDLG domain 2): 2.20 and 3.99
- Ave OD (RGS12 domain 1; A450 nm): 0.4295 and 0.661
- OD S/N (RGS12 domain 1; vs GST only well): 3.96 and 4.64
- Ave OD (MAGI 1 domain 4; A450 nm): 0.395 and 0.496
- OD S/N (MAGI 1 domain 4; vs GST only well): 1.20 and 1.58
- Ave OD (INADL domain 6; A450 nm): 0.518
- OD S/N (INADL domain 6; vs GST only well): 3.07
- Ave OD (KIAA0561 domain 1; A450 nm): 0.3475
- OD S/N (KIAA0561 domain 1; vs GST only well): 2.44
- Ave OD (APXL1 domain 1; A450 nm): 0.4605 and 0.708
- OD S/N (APXL1 domain 1; vs GST only well): 3.14 and 2.96
- Ave OD (MAGI 1 domain 2; A450 nm, MAGI 1 domain 2, peptide 10 uM, protein 5): 4.1125
- binding to MAGI-1 second PDZ domain (qualitative) (MAGI 1 domain 2; G assay / Matrix TM assay, called MAGI 1 domain 1 in b521 (nomenclature b497)): bound with the highest relative affinity
- OD S/N (MAGI 1 domain 2; vs GST only well, MAGI 1 domain 2, peptide 10 uM, protein 5): 19.54
- Ave OD (PDZK1 domain 2, 3, 4; A450 nm): 0.518
- OD S/N (PDZK1 domain 2, 3, 4; vs GST only well): 2.64
